Data from the NIST ThermoML archive (doi:10.1021/je050147b).
“And” between values parts separate entries of the source, which are not always exact repeats. Identical values can stand only once. ± gives the expanded uncertainty stated by the source.

Settings: Liquid; for mass density: 101.33 kPa

CCCCn1cc[n+](C)c1.F[P-](F)(F)(F)(F)F [1-butyl-3-methylimidazolium hexafluorophosphate]
Settings	mass density
273.1 K	1388.85 ± 4.7 kg/m3
278.1 K	1384.55 ± 4.7 kg/m3
283.1 K	1380.27 ± 4.7 kg/m3
288.15 K	1375.99 ± 4.6 kg/m3
293.15 K	1371.72 ± 4.6 kg/m3
298.15 K	1367.45 ± 4.6 kg/m3
303.15 K	1363.19 ± 4.6 kg/m3
313.15 K	1354.95 ± 4.5 kg/m3 and 1354.96 ± 4.5 kg/m3
323.15 K	1346.75 ± 4.5 kg/m3
333.15 K	1338.58 ± 4.4 kg/m3
343.15 K	1330.45 ± 4.4 kg/m3
353.15 K	1322.38 ± 4.3 kg/m3
363.15 K	1314.36 ± 4.3 kg/m3

Settings	viscosity
273.15 K, 100 kPa	1717 ± 820 mPa·s
278.15 K, 100 kPa	1119 ± 470 mPa·s
283.15 K, 100 kPa	755 ± 280 mPa·s
288.15 K, 100 kPa	521 ± 160 mPa·s
293.15 K, 100 kPa	369 ± 100 mPa·s
298.15 K, 100 kPa	271 ± 62 mPa·s and 273 ± 63 mPa·s
298.15 K, 12100 kPa	329 ± 84 mPa·s
298.15 K, 24700 kPa	391 ± 110 mPa·s
298.15 K, 25700 kPa	390 ± 110 mPa·s
298.15 K, 50600 kPa	546 ± 180 mPa·s
298.15 K, 75800 kPa	761 ± 280 mPa·s
298.15 K, 100300 kPa	1047 ± 430 mPa·s
298.15 K, 125100 kPa	1432 ± 650 mPa·s
298.15 K, 125600 kPa	1461 ± 660 mPa·s
298.15 K, 150300 kPa	1995 ± 990 mPa·s
298.15 K, 174100 kPa	2694 mPa·s
303.15 K, 100 kPa	202 ± 38 mPa·s
308.15 K, 100 kPa	158.4 ± 25 mPa·s
308.15 K, 900 kPa	159.7 ± 25 mPa·s
308.15 K, 9600 kPa	179.1 ± 31 mPa·s
308.15 K, 25800 kPa	221 ± 45 mPa·s
308.15 K, 50300 kPa	302 ± 73 mPa·s
308.15 K, 75600 kPa	412 ± 120 mPa·s
308.15 K, 100300 kPa	557 ± 180 mPa·s
308.15 K, 125200 kPa	750 ± 270 mPa·s
308.15 K, 140600 kPa	898 ± 350 mPa·s
308.15 K, 151000 kPa	1016 ± 410 mPa·s
313.15 K, 100 kPa	120 ± 15 mPa·s
323.15 K, 100 kPa	73.6 ± 6.3 mPa·s and 74.1 ± 6.3 mPa·s and 74.9 ± 6.5 mPa·s
323.15 K, 1300 kPa	74.9 ± 6.2 mPa·s
323.15 K, 3100 kPa	76.9 ± 6.5 mPa·s
323.15 K, 5600 kPa	78.2 ± 6.7 mPa·s
323.15 K, 10700 kPa	82.7 ± 7.4 mPa·s
323.15 K, 25800 kPa	98.9 ± 10 mPa·s
323.15 K, 50800 kPa	127.8 ± 17 mPa·s
323.15 K, 75800 kPa	173.5 ± 29 mPa·s
323.15 K, 100700 kPa	224 ± 46 mPa·s
323.15 K, 125500 kPa	281 ± 66 mPa·s
323.15 K, 150400 kPa	371 ± 100 mPa·s
323.15 K, 175200 kPa	481 ± 150 mPa·s
323.15 K, 200000 kPa	616 ± 210 mPa·s
323.15 K, 224600 kPa	784 ± 290 mPa·s
323.15 K, 249300 kPa	995 ± 400 mPa·s
333.15 K, 100 kPa	49.5 ± 3.5 mPa·s [middle of 4 runs]
333.15 K, 10700 kPa	55.8 ± 3.7 mPa·s
333.15 K, 26200 kPa	66 ± 4.9 mPa·s
333.15 K, 51100 kPa	85.6 ± 7.9 mPa·s
333.15 K, 75700 kPa	109.8 ± 13 mPa·s
333.15 K, 91100 kPa	128 ± 17 mPa·s
333.15 K, 100100 kPa	139.4 ± 20 mPa·s
343.15 K, 100 kPa	35.1 ± 2.5 mPa·s and 34.7 ± 2.5 mPa·s and 34.6 ± 2.5 mPa·s
343.15 K, 5500 kPa	37.2 ± 2.6 mPa·s
343.15 K, 10600 kPa	39.2 ± 2.8 mPa·s
343.15 K, 25700 kPa	45.6 ± 3.2 mPa·s
343.15 K, 50600 kPa	58 ± 3.9 mPa·s
343.15 K, 75600 kPa	73.7 ± 5.9 mPa·s
343.15 K, 100600 kPa	92.9 ± 9.3 mPa·s
343.15 K, 125400 kPa	116.2 ± 14 mPa·s
343.15 K, 140200 kPa	132.6 ± 18 mPa·s
343.15 K, 149900 kPa	144.4 ± 21 mPa·s
343.15 K, 172900 kPa	176.1 ± 30 mPa·s
353.15 K, 100 kPa	25.5 ± 1.8 mPa·s
